Columns and labels:
[1] = target: T1, human recombinant EP2 receptors (Homo sapiens, UniProt P43116); settings: cited from earlier work
T1 construct: expressed in transfected cells; host or cells: HEK cells

EP1 receptors = target: T2, EP1 receptors (Homo sapiens, UniProt P34995); settings: Woodward et al., 2019; cited from earlier work
T2 sequence (P34995 1-402): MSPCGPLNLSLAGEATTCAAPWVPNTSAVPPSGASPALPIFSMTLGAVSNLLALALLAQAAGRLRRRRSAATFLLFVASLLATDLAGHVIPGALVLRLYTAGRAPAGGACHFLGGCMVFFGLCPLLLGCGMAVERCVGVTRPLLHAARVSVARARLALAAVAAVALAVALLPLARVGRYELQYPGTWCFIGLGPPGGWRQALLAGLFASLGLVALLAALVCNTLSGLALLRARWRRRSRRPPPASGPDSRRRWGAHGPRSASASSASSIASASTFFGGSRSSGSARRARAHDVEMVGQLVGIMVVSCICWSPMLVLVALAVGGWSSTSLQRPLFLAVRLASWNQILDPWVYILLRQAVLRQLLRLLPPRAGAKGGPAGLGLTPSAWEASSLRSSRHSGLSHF

EP3 receptors = target: T3, EP3 receptors (Homo sapiens, UniProt P43115); settings: Woodward et al., 2019; cited from earlier work
T3 sequence (P43115 1-390): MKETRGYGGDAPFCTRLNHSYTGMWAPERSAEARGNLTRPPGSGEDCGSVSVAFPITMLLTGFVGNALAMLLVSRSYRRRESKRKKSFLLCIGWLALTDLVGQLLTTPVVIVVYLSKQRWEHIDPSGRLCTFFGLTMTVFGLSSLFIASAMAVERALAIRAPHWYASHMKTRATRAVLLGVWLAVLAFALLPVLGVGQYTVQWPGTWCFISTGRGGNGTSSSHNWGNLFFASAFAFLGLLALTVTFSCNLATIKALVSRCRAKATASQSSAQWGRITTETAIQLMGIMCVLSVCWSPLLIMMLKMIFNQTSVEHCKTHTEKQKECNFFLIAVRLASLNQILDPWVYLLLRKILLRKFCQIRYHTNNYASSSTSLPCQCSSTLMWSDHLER

EP4 receptors = EP4 receptors (Homo sapiens, UniProt P35408); settings: Woodward et al., 2019; cited from earlier work
Chain of EP4 receptors (P35408 whole entry): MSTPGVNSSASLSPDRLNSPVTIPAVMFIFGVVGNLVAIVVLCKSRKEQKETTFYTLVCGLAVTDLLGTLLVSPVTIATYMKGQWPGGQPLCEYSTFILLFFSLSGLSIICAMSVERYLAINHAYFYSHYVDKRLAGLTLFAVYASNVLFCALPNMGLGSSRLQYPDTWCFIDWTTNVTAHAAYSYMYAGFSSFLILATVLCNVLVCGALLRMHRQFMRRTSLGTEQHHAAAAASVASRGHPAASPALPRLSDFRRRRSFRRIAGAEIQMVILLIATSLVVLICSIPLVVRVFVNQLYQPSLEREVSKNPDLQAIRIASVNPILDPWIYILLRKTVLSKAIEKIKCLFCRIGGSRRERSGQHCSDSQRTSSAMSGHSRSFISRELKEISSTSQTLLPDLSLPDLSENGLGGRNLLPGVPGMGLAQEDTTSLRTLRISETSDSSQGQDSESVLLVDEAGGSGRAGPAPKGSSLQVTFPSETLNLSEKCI

DP receptors = target: T4, DP receptors (Homo sapiens, UniProt Q13258); settings: Woodward et al., 2019; cited from earlier work
T4 sequence (Q13258 1-359): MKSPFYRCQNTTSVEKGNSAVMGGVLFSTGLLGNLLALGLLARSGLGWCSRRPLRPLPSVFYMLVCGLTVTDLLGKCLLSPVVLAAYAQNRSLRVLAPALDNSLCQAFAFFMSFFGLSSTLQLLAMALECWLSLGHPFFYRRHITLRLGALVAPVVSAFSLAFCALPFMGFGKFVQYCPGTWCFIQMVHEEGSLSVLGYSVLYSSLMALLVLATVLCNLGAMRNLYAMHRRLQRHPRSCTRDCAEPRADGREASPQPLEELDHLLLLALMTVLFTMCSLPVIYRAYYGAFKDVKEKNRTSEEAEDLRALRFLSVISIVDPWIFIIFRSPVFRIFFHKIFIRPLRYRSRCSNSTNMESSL

FP receptors = FP receptors (Homo sapiens, UniProt P43088); settings: Woodward et al., 2019; cited from earlier work
Chain of FP receptors (P43088 whole entry): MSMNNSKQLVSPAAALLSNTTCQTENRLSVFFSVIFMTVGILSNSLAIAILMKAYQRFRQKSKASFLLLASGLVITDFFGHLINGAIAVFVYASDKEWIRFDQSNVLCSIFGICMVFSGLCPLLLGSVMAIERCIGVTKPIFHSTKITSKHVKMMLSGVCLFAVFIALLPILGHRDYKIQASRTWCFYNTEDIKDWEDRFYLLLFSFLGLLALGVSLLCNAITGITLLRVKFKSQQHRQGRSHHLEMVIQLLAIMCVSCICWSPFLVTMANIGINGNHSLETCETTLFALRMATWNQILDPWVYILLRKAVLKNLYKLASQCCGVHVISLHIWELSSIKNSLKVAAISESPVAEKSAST

IP receptors = IP receptors (Homo sapiens, UniProt P43119); settings: Woodward et al., 2019; cited from earlier work
Chain of IP receptors (P43119 whole entry): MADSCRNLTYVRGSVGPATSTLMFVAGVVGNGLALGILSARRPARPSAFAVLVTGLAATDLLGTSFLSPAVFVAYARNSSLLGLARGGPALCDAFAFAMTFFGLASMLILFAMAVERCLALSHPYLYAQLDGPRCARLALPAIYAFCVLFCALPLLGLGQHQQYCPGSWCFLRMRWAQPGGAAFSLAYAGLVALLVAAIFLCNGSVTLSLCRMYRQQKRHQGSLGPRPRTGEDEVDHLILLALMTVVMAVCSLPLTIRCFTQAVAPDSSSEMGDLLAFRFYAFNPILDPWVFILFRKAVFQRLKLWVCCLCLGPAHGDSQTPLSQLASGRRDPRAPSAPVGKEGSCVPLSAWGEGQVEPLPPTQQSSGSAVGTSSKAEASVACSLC

TP receptors = target: T5, TP receptors (Homo sapiens, UniProt P21731); settings: Woodward et al., 2019; cited from earlier work
T5 sequence (P21731 1-343): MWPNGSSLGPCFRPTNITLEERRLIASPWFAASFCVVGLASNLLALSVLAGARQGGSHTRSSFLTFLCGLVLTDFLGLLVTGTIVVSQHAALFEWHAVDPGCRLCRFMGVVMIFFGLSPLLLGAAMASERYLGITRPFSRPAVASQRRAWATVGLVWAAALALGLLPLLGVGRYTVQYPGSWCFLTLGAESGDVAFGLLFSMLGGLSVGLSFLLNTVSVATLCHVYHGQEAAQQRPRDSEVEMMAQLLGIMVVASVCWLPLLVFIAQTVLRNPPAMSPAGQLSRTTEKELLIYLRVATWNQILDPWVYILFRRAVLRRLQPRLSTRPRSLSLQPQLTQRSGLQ

[2] = test system: ocular normotensive cynomolgus monkeys; assay: Intraocular pressure after single periorbital dose (Example 1); format: in vivo, cynomolgus monkey; settings: single periorbital dose of 10, 20 and 30 micrograms (similar extent), right eye (OD)
From the text: FIG. 2 compares the effect of 9 micrograms bimatoprost (30 pi of 0.03% Lumigan® ophthalmic solution) topical ocular surface administration once daily per eye for 4 days with single dose periorbital skin administration of [(3′-fluoro-4-fluorobiphenyl-3-carbonyl) amino] phenoxyacetic acid isopropyl ester ointment at 10 micrograms, 20 micrograms or 30 micrograms [(3′-fluoro-4-fluorobiphenyl-3-carbonyl) amino] phenoxyacetic acid isopropyl ester on intraocular pressure (TOP) in ocular normotensive Cynomolgus monkeys (Mean±SEM, n=4/group).
(§1) Ocular normotensive cynomolgus monkeys were administered a single dose of JV-GL1 Ointment (20% medium-chain triglycerides and 80% petrolatum (v/v)) to the periorbital skin of the right eye (OD) at JV-GL1 doses of 10 micrograms, 20 micrograms, and 30 micrograms and TOP was measured; Lumigan® eye drops were used as a comparator. […] Compared with baseline, IOP was decreased in the eyes (OD) of animals treated with 10 micrograms, 20 micrograms, and 30 micrograms JVGL-1 to a similar extent (approximately 60%) whereas a much lower decrease occurred for Lumigan® (approximately 30%).

[3] = test system: ocular normotensive cynomolgus monkeys; assay: Periorbital skin and pupil observations after single periorbital dose of 10-30 micrograms (Example 1); format: in vivo, cynomolgus monkey
Description: as §1
The incidence rate of pupil constriction in the three test article groups was 100% after 2-3 hours post-dosing.

[4] = test system: ocular normotensive cynomolgus monkeys; assay: Intraocular pressure after once daily periorbital 0.2 μg/eye ointment (Example 2); format: in vivo, cynomolgus monkey
Description: Animals were unilaterally treated via periorbital skin administration of [(3′-fluoro-4-fluorobiphenyl-3-carbonyl) amino] phenoxyacetic acid isopropyl ester ointment once daily on Days 15-21. The right eye of the control group (Group 2) received ointment vehicle once daily on Days 8-14 and no treatment on Days 15-21. OD=right eye.
Ocular normotensive cynomolgus monkeys (Group 1, n=3) were unilaterally treated via periorbital skin administration of JV-GL1 ointment once daily in an amount of 0.2 μg in the right eye on Days 15-21 of a study, the results of which are shown in FIG. 3. JV-GL1 was administered as an ointment (20% medium-chain triglycerides and 80% petrolatum (v/v)). The animals were untreated on days 8-14 and IOP monitored daily. Group 2 (n=3) was administered vehicle ointment alone on days 8-14, followed by no treatment on days 15-21 of the study.

[5] = test system: ocular normotensive cynomolgus monkeys; assay: Local observations after low periorbital doses of ointment (0.2 to 5 micrograms/eye); format: in vivo, cynomolgus monkey
Description: Separately, ocular normotensive cynomolgus monkeys were administered single doses of the ointment at 0.6 micrograms, 2.0 micrograms or 5.0 micrograms per eye.

monkey = assay: Monkey study of periorbital skin administration versus eye drops; format: in vivo; settings: essentially equal doses
human subjects [6] = assay: IOP in human subjects after once daily periorbital ointment (Example 6); format: in vivo
Description: (§2) Human subjects were treated with JV-GL1 ointment (20% medium-chain triglycerides and 80% petrolatum (v/v)) via periorbital skin administration to both eyes once daily. The human subjects were monitored daily for 9 days, with TOP measurements taken at 0 hours, 0.5 hours, 2 hours, and 8 hours from administration of the dose on Days 0, 1, and 9. IOP measurements were taken 0 hours from administration of the dose on Days 4 and 7.

human subjects [7] = assay: Tolerability in human subjects during periorbital dosing (Example 6); format: in vivo; settings: Groups 1-4, during the dosing period
Description: as §2

[8] = 10, 20, 30 micrograms single dose

T1 sequence (P43116 whole entry): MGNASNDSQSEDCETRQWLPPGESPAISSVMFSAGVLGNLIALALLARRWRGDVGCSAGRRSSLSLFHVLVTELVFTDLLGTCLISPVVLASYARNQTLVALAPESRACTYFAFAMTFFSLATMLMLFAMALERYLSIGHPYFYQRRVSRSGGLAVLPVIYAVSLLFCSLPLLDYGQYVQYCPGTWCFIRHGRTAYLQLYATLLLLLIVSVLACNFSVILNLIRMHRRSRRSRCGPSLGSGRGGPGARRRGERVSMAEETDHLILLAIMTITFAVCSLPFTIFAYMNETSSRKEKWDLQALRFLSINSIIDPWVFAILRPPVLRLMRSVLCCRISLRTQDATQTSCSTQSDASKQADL

For `O=C(O)COc1cccc(NC(=O)c2cc(-c3cccc(F)c3)ccc2F)c1` [JV-GL1 free acid, 3-[(3′-fluoro-4-fluorobiphenyl-3-carbonyl)amino] phenoxyacetic acid], the “maximal elevation of cAMP levels” value ([1]; HEK cells over-expressing human recombinant EP2 receptors, versus PGE2) is listed as “comparable to that of the endogenous agonist PGE2”, the EP2 receptor agonism ([1]; Woodward et al., 2019) is listed as “potent and full EP2 receptor agonist” and the “affinity for EP1 receptors” value (EP1 receptors) is listed as “negligible”. For the same molecule, the “affinity for EP3 receptors” value (EP3 receptors) was “negligible”, the “affinity for EP4 receptors” value (EP4 receptors) was “negligible” and the “affinity for DP receptors” value (DP receptors) was “negligible”. For the same molecule, the “affinity for FP receptors” value (FP receptors) was “negligible”, the “affinity for IP receptors” value (IP receptors) was “negligible” and the “affinity for TP receptors” value (TP receptors) was “negligible”.

With `CC(C)OC(=O)COc1cccc(NC(=O)c2cc(-c3cccc(F)c3)ccc2F)c1` [JV-GL1, 3-[(3′-fluoro-4-fluorobiphenyl-3-carbonyl)amino] phenoxyacetic acid isopropyl ester] the “IOP decrease compared with baseline” value [2] was “approximately 60%”, the “incidence rate of periorbital skin swelling, dose relation” value [3, 8] was “showed a certain dose dependent relationship” and the “recovery of periorbital skin redness” value [3, 8] was “completely recovered by Day 2”. For the same molecule, the “resolution of periorbital skin swelling” value [3, 8] was “disappeared by Day 5”, the “incidence rate of periorbital skin redness” value ([3]; all three groups (10, 20, 30 micrograms), 2-3 hours post-dosing) was 100% and the “recovery of pupil constriction” value ([3]; except a single animal in the high-dose group) was “recovered by Day 15”. The “local findings at 10 to 30 micrograms/eye” value ([3]; in ointment, periorbital, 10 to 30 micrograms/eye) was “modest pupil constriction, erythema of the ocular surface and periorbital skin, and swelling of the periorbital skin”, the “incidence rate of pupil constriction” value ([3]; three groups (10, 20, 30 micrograms), after 2-3 hours post-dosing) was 100% and the “onset of marked decrease in IOP” value ([4]; 0.2 μg/eye (OD) once daily) was “as early as one day following initiation of treatment”. The “IOP by the end of the study” value ([4]; 0.2 μg/eye (OD) once daily Days 15-21, from a starting point of ˜25 mmHg) was about 10 mmHg, the “efficacy and local tolerability at lower doses” value ([5]; 0.2 to 5 micrograms/eye, periorbital) was “retained without obvious periorbital skin swelling and hyperemia of the periorbital skin and ocular surface” and the “pupil constriction during the dosing period” value ([5]; eyes treated with either eye drops or ointment) was “persistent pupil constriction was observed”. The “resolution of skin redness and swelling” value ([5]; single doses of ointment at 0.6, 2.0 or 5.0 micrograms per eye) was “disappeared a few hours to overnight after dosing”, the “efficacy of periorbital skin administration versus eye drops” value (monkey) was “as effective as eye drops” and the “average change in TOP” value (human subjects [6]; Group 1, 0.30 μg/eye/day over 9 days, 0 hours after dose) was −6%. The “average change in TOP” value (human subjects [6]; Group 1, 0.30 μg/eye/day over 9 days, 0.5 hours after dose) was −3%, the “average change in TOP” value (human subjects [6]; Group 1, 0.30 μg/eye/day over 9 days, 2 hours after dose) was 0% and the “average change in TOP” value (human subjects [6]; Group 1, 0.30 μg/eye/day over 9 days, 8 hours after dose) was −4%. For the same molecule, the “average change in TOP” value (human subjects [6]; Group 2, 0.59 μg/eye/day over 9 days, 0 hours after dose) was −14%, the “average change in TOP” value (human subjects [6]; Group 2, 0.59 μg/eye/day over 9 days, 0.5 hours after dose) was −10% and the “average change in TOP” value (human subjects [6]; Group 2, 0.59 μg/eye/day over 9 days, 2 hours after dose) was −16%. For the same molecule, the “average change in TOP” value (human subjects [6]; Group 2, 0.59 μg/eye/day over 9 days, 8 hours after dose) was −12%, the “average change in TOP” value (human subjects [6]; Group 3, 0.99 μg/eye/day over 9 days, 0 hours after dose) was −11% and the “average change in TOP” value (human subjects [6]; Group 3, 0.99 μg/eye/day over 9 days, 0.5 hours after dose) was −16%. The “average change in TOP” value (human subjects [6]; Group 3, 0.99 μg/eye/day over 9 days, 2 hours after dose) was −16%, the “average change in TOP” value (human subjects [6]; Group 3, 0.99 μg/eye/day over 9 days, 8 hours after dose) was −15% and the “average change in TOP” value (human subjects [6]; Group 4, 1.92 μg/eye/day over 9 days, 0 hours after dose) was −19%. For the same molecule, the “average change in TOP” value (human subjects [6]; Group 4, 1.92 μg/eye/day over 9 days, 0.5 hours after dose) was −22%, the “average change in TOP” value (human subjects [6]; Group 4, 1.92 μg/eye/day over 9 days, 2 hours after dose) was −20% and the “average change in TOP” value (human subjects [6]; Group 4, 1.92 μg/eye/day over 9 days, 8 hours after dose) was −14%. The “average change in TOP” value (human subjects [6]; Group 5, 3.99 μg/eye/day over 9 days, 0 hours after dose) was −13%, the “average change in TOP” value (human subjects [6]; Group 5, 3.99 μg/eye/day over 9 days, 0.5 hours after dose) was −13% and the “average change in TOP” value (human subjects [6]; Group 5, 3.99 μg/eye/day over 9 days, 2 hours after dose) was −18%. The “average change in TOP” value (human subjects [6]; Group 5, 3.99 μg/eye/day over 9 days, 8 hours after dose) was −18%, the “dose dependence of TOP reduction” value (human subjects [6]; Groups 1, 2, 3 and 4 (0.30 to 1.92 μg/eye/day)) was “dose-dependent trend in TOP reduction” and the “irritation or discomfort associated with AE of mild periorbital erythema” value (human subjects [7]) was “did not report any irritation or discomfort”.

Reference: patent US20230372274A1, “COMPOSITIONS AND METHODS FOR PERIORBITAL ADMINISTRATION OF EP2 RECEPTOR AGONISTS” (JENIVISION INC., priority 2021, published 2023)
